Assay results from ChEMBL document CHEMBL1201862, “PubChem BioAssay data set” (2004).
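1) Cells in 96-well plates. 2) Compound, 48 h, 5 concentrations. 3) Linear interpolation between surrounding doses. 4) Unreached endpoint = highest concentration. GI50 is the concentration that inhibits growth by half.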 Calls of active or inactive are those of the source. Cut-off read from the data, not from the text of the source: active = GI50 up to about 1.1 µM and inactive = higher.

Experiments:
Assay in all cases: NCI anticancer screen, dose series, 48 h
786-0 = test system: 786-0
A549 = test system: A549
ACHN = test system: ACHN
CAKI-1 = test system: CAKI-1
CCRF-CEM = test system: CCRF-CEM
COLO 205 = test system: COLO 205
DMS-273 = test system: DMS-273
EKVX = test system: EKVX
HCC 2998 = test system: HCC 2998
HCT-116 = test system: HCT-116
HCT-15 = test system: HCT-15
HL-60 = test system: HL-60
HOP-18 = test system: HOP-18
HOP-62 = test system: HOP-62
HOP-92 = test system: HOP-92
HT-29 = test system: HT-29
IGROV-1 = test system: IGROV-1
K562 = test system: K562
KM-20L2 = test system: KM-20L2
KM12 = test system: KM12
LOX IMVI = test system: LOX IMVI
LXFL 529 = test system: LXFL 529
M14 = test system: M14
M19-MEL = test system: M19-MEL
MOLT-4 = test system: MOLT-4
NCI-H226 = test system: NCI-H226
NCI-H23 = test system: NCI-H23
NCI-H460 = test system: NCI-H460
NCI-H522 = test system: NCI-H522
OVCAR-3 = test system: OVCAR-3
OVCAR-4 = test system: OVCAR-4
OVCAR-5 = test system: OVCAR-5
OVCAR-8 = test system: OVCAR-8
RPMI-8226 = test system: RPMI-8226
RXF 393 = test system: RXF 393
SF-268 = test system: SF-268
SF-295 = test system: SF-295
SK-MEL-28 = test system: SK-MEL-28
SK-MEL-2 = test system: SK-MEL-2
SK-MEL-5 = test system: SK-MEL-5
SK-OV-3 = test system: SK-OV-3
SNB-19 = test system: SNB-19
SNB-75 = test system: SNB-75
SNB-78 = test system: SNB-78
SR = test system: SR
SW-620 = test system: SW-620
TK-10 = test system: TK-10
U-251 = test system: U-251
UACC-257 = test system: UACC-257
UACC-62 = test system: UACC-62
UO-31 = test system: UO-31
XF498 = test system: XF498
A498 = test system: A498
DLD-1 = test system: DLD-1
DMS-114 = test system: DMS-114
Malme-3M = test system: Malme-3M
SF-539 = test system: SF-539
SN12C = test system: SN12C

With `CC(=O)OC12C(C)=C(C)C(=O)N1c1ccccc1N2C(C)=O` (centres undefined) the GI50 (786-0) was > 100 µM (inactive), the GI50 (A549) was > 100 µM (inactive) and the GI50 (ACHN) was > 100 µM (inactive). For the same compound, the GI50 (CAKI-1) was > 100 µM (inactive), the GI50 (CCRF-CEM) was > 100 µM (inactive) and the GI50 (COLO 205) was > 100 µM (inactive). For the same compound, the GI50 (DMS-273) was > 100 µM (inactive), the GI50 (EKVX) was > 100 µM (inactive) and the GI50 (HCC 2998) was > 100 µM (inactive). For the same compound, the GI50 (HCT-116) was > 100 µM (inactive), the GI50 (HCT-15) was greater than 100 µM and the GI50 (HL-60) was > 100 µM (inactive). The GI50 (HOP-18) was > 100 µM (inactive), the GI50 (HOP-62) was > 100 µM (inactive) and the GI50 (HOP-92) was > 100 µM (inactive). The GI50 (HT-29) was > 100 µM (inactive), the GI50 (IGROV-1) was > 100 µM (inactive) and the GI50 (K562) was > 100 µM (inactive). The GI50 (KM-20L2) was > 100 µM (inactive), the GI50 (KM12) was > 100 µM (inactive) and the GI50 (LOX IMVI) was > 100 µM (inactive). For the same compound, the GI50 (LXFL 529) was > 100 µM (inactive), the GI50 (M14) was > 100 µM (inactive) and the GI50 (M19-MEL) was > 100 µM (inactive). For the same compound, the GI50 (MOLT-4) was > 100 µM (inactive), the GI50 (NCI-H226) was > 100 µM (inactive) and the GI50 (NCI-H23) was > 100 µM (inactive). The GI50 (NCI-H460) was > 100 µM (inactive), the GI50 (NCI-H522) was > 100 µM (inactive) and the GI50 (OVCAR-3) was > 100 µM (inactive). For the same compound, the GI50 (OVCAR-4) was > 100 µM (inactive), the GI50 (OVCAR-5) was > 100 µM (inactive) and the GI50 (OVCAR-8) was > 100 µM (inactive). The GI50 (RPMI-8226) was > 100 µM (inactive), the GI50 (RXF 393) was > 100 µM (inactive) and the GI50 (SF-268) was > 100 µM (inactive). The GI50 (SF-295) was > 100 µM (inactive), the GI50 (SK-MEL-28) was 33.4 µM (inactive) and the GI50 (SK-MEL-2) was > 100 µM (inactive). For the same compound, the GI50 (SK-MEL-5) was > 100 µM (inactive), the GI50 (SK-OV-3) was > 100 µM (inactive) and the GI50 (SNB-19) was > 100 µM (inactive). For the same compound, the GI50 (SNB-75) was > 100 µM (inactive), the GI50 (SNB-78) was > 100 µM (inactive) and the GI50 (SR) was > 100 µM (inactive). The GI50 (SW-620) was > 100 µM (inactive), the GI50 (TK-10) was > 100 µM (inactive) and the GI50 (U-251) was > 100 µM (inactive). For the same compound, the GI50 (UACC-257) was > 100 µM (inactive), the GI50 (UACC-62) was > 100 µM (inactive) and the GI50 (UO-31) was > 100 µM (inactive). For the same compound, the GI50 (XF498) was > 100 µM (inactive).

With `CC1=[N+]([O-])c2ccccc2C(=O)C1=O` the GI50 (786-0) was > 100 µM (inactive), the GI50 (A498) was > 100 µM (inactive) and the GI50 (A549) was > 100 µM (inactive). The GI50 (ACHN) was > 100 µM (inactive), the GI50 (CAKI-1) was > 100 µM (inactive) and the GI50 (CCRF-CEM) was 25.9 µM (inactive). The GI50 (COLO 205) was > 100 µM (inactive), the GI50 (DLD-1) was > 100 µM (inactive) and the GI50 (DMS-114) was > 100 µM (inactive). For the same compound, the GI50 (DMS-273) was > 100 µM (inactive), the GI50 (EKVX) was > 100 µM (inactive) and the GI50 (HCC 2998) was > 100 µM (inactive). The GI50 (HCT-116) was 48 µM (inactive), the GI50 (HCT-15) was 56.4 µM and the GI50 (HL-60) was 40.3 µM (inactive). For the same compound, the GI50 (HOP-18) was > 100 µM (inactive), the GI50 (HOP-62) was > 100 µM (inactive) and the GI50 (HOP-92) was 69 µM (inactive). The GI50 (HT-29) was > 100 µM (inactive), the GI50 (IGROV-1) was > 100 µM (inactive) and the GI50 (K562) was 29.1 µM (inactive). For the same compound, the GI50 (KM-20L2) was > 100 µM (inactive), the GI50 (KM12) was > 100 µM (inactive) and the GI50 (LOX IMVI) was 41 µM (inactive). For the same compound, the GI50 (LXFL 529) was > 100 µM (inactive), the GI50 (M14) was > 100 µM (inactive) and the GI50 (M19-MEL) was 44.8 µM (inactive). The GI50 (MOLT-4) was 43.2 µM (inactive), the GI50 (Malme-3M) was > 100 µM (inactive) and the GI50 (NCI-H226) was 15.8 µM (inactive). For the same compound, the GI50 (NCI-H23) was 92.9 µM (inactive), the GI50 (NCI-H460) was 61 µM (inactive) and the GI50 (NCI-H522) was 23.3 µM (inactive). For the same compound, the GI50 (OVCAR-3) was 29.2 µM (inactive), the GI50 (OVCAR-4) was 68.5 µM (inactive) and the GI50 (OVCAR-5) was > 100 µM (inactive). The GI50 (OVCAR-8) was > 100 µM (inactive), the GI50 (RPMI-8226) was 35.5 µM (inactive) and the GI50 (RXF 393) was 81.1 µM (inactive). The GI50 (SF-268) was 42.2 µM (inactive), the GI50 (SF-295) was > 100 µM (inactive) and the GI50 (SF-539) was > 100 µM (inactive). The GI50 (SK-MEL-28) was > 100 µM (inactive), the GI50 (SK-MEL-2) was > 100 µM (inactive) and the GI50 (SK-MEL-5) was > 100 µM (inactive). The GI50 (SK-OV-3) was > 100 µM (inactive), the GI50 (SN12C) was > 100 µM (inactive) and the GI50 (SNB-19) was 93.8 µM (inactive). The GI50 (SNB-75) was > 100 µM (inactive), the GI50 (SNB-78) was > 100 µM (inactive) and the GI50 (SW-620) was 89.5 µM (inactive). For the same compound, the GI50 (TK-10) was > 100 µM (inactive), the GI50 (U-251) was 99.8 µM (inactive) and the GI50 (UACC-257) was 65.8 µM (inactive). For the same compound, the GI50 (UACC-62) was 55.6 µM (inactive), the GI50 (UO-31) was > 100 µM (inactive) and the GI50 (XF498) was > 100 µM (inactive).
